Results taken from patent publication US20050239873A1 (priority 1999, published 2005).

How the values were obtained:
[1] = tested on: TAMH cells over-expressing Bcl-xL A142L; assay: Cytotoxicity (Alamar Blue) in Bcl-xL transfectants; assay type: cell-based, murine
Protocol: (§1) TAMH cells were transfected with DNA encoding each of the mutant BCl-xL proteins by lipofection (See Example 1 for method). For analysis of BCl-xL expression, 20 μg of cell protein was separated by 20% SDS-PAGE and transferred to nitrocellulose membranes. Immunodetection of BCl-xL was carried out using rabbit anti-Bcl-xL antibody and Protein A/horseradish peroxidase conjugate, followed by chemiluminescent detection. Cells were grown to about 80% confluence in 96-well plates followed by addition of 100 μl of 2X AA1 or staurosporine (STS) solution in complete medium. STS is a natural product originally isolated from the bacterium Streptomyces and found to be capable of inducing apoptosis in certain cells and which induction of apoptosis could be blocked by the expression of a Bcl-2 family protein. Cell viability was determined spectrophotometrically after 24 h treatment as the ratio of reduced and oxidized Alamar Blue (BIOSOURCE) at 570 nm and 600 nm, respectively. All results were normalized against DMSO controls. LD50 values were calculated by non-linear regression analysis using Prism software (Graphpad).

[2] = tested on: TAMH cells over-expressing Bcl-xL E92L; assay: Cytotoxicity (Alamar Blue) in Bcl-xL transfectants; assay type: cell-based, murine; details: 24 h
Protocol: as §1

[3] = tested on: TAMH cells over-expressing Bcl-xL F146L; assay: Cytotoxicity (Alamar Blue) in Bcl-xL transfectants; assay type: cell-based, murine
Protocol: as §1

[4] = tested on: TAMH cells over-expressing Bcl-xL F97W; assay: Cytotoxicity (Alamar Blue) in Bcl-xL transfectants; assay type: cell-based, murine; details: 24 h
Protocol: as §1

[5] = tested on: TAMH cells over-expressing Bcl-xL WT; assay: Cytotoxicity (Alamar Blue) in Bcl-xL transfectants; assay type: cell-based, murine; details: 24 h
Protocol: as §1

Bcl-xL(ΔC) A142L [6] = target: T1, Bcl-xL(ΔC) A142L (Homo sapiens, UniProt Q07817, A142L); assay: Fluorescence anisotropy binding
T1 construct: inferred from Ni-NTA purification and the pET22b(+) NdeI/XhoI cloning); made in house; host or cells: Escherichia coli BL21(DE3) carrying pUB520
T1 sequence (Q07817 1-211 A142L limits assumed): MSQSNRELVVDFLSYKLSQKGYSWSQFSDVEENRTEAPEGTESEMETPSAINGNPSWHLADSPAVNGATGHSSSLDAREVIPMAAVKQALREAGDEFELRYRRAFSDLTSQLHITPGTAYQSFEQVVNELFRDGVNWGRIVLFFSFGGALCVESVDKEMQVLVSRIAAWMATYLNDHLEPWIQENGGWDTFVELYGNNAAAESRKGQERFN
Protocol: (§2) A pET22b (Novagen) vector coding for BCl-xL(ΔC), a mutant Bcl-xL protein without the COOH terminal region, was transformed into Escherichia coli BL21(DE3) cells that carried pUB520 (encoding human Arg tRNA) and grown to an A600 of 0.6. Protein expression was induced with 0.1 mM isopropyl β-D-thiogalactoside at 30° C. The cells were resuspended 1:5 (w/v) in PEB buffer (50 mM Tris, pH 8.0, 200 mM NaCl, 0.2 mM phenylmethylsulfonyl fluoride, 5 mM β-mercaptoethanol, 5 mM imidazole, and 1% (v/v) glycerol), and stirred for 20 min at 4° C. Cells were disrupted by pulse sonication, and the soluble fraction was loaded onto a nickel-nitrilotriacetic acid column (Qiagen) equilibrated with PEB buffer. The column was washed with 40 mM imidazole, eluted with 200 mM imidazole, and the protein fractions were pooled and dialyzed (50 mM Tris, pH 8.0, 200 mM NaCl, 0.2 mM phenylmethylsulfonyl fluoride) at 4° C. overnight. The dialyzed protein was concentrated to 10 mg/ml and fractionated on a Superdex 75 gel filtration column (Amersham Biosciences). The fractions containing Bcl-xL(ΔC) protein were pooled, exchanged into low-salt buffer (same as for previous dialysis buffer, except 50 mM NaCI), and loaded onto a MonoQ anion exchange column (Amersham Biosciences). Protein was eluted from the column with increasing NaCl gradient, pooled and concentrated.
(§3) All reagents were prepared in 0.2 μm-filtered PBS with fresh 1 mM DTT. […] Slit widths were set at 10 nm for both excitation and emission.

Bcl-xL(ΔC) E92L [7] = target: T2, Bcl-xL(ΔC) E92L (Homo sapiens, UniProt Q07817, E92L); assay: Fluorescence anisotropy binding; details: AA1 200 nM or FITC-labeled BH3 peptide 25 nM; read-out: Dissociation Constant KD
T2 construct: inferred from Ni-NTA purification and the pET22b(+) NdeI/XhoI cloning); made in house; host or cells: Escherichia coli BL21(DE3) carrying pUB520
T2 sequence (Q07817 1-211 E92L limits assumed): as the sequence (Q07817 1-211 A142L limits assumed) above, with E92L, L142A counted along it
Protocol: as §2, §3

Bcl-xL(ΔC) F146L [8] = target: T3, Bcl-xL(ΔC) F146L (Homo sapiens, UniProt Q07817, F146L); assay: Fluorescence anisotropy binding
T3 construct: inferred from Ni-NTA purification and the pET22b(+) NdeI/XhoI cloning); made in house; host or cells: Escherichia coli BL21(DE3) carrying pUB520
T3 sequence (Q07817 1-211 F146L limits assumed): as the sequence (Q07817 1-211 A142L limits assumed) above, with L142A, F146L counted along it
Protocol: as §2, §3

Bcl-xL(ΔC) F97W [9] = target: T4, Bcl-xL(ΔC) F97W (Homo sapiens, UniProt Q07817, F97W); assay: Fluorescence anisotropy binding
T4 construct: inferred from Ni-NTA purification and the pET22b(+) NdeI/XhoI cloning); made in house; host or cells: Escherichia coli BL21(DE3) carrying pUB520
T4 sequence (Q07817 1-211 F97W limits assumed): as the sequence (Q07817 1-211 A142L limits assumed) above, with F97W, L142A counted along it
Protocol: as §2, §3

Bcl-xL(ΔC) WT [10] = target: T5, Bcl-xL(ΔC) WT (Homo sapiens, UniProt Q07817); assay: Fluorescence anisotropy binding; details: AA1 200 nM or FITC-labeled BH3 peptide 25 nM; read-out: Dissociation Constant KD
T5 construct: inferred from Ni-NTA purification and the pET22b(+) NdeI/XhoI cloning); made in house; host or cells: Escherichia coli BL21(DE3) carrying pUB520
T5 sequence (Q07817 1-211 limits assumed, stated change not applied): as the sequence (Q07817 1-211 A142L limits assumed) above, with L142A counted along it
Protocol: as §2, §3

Bcl-xL(ΔC) E92L [11] = target: T2, Bcl-xL(ΔC) E92L; assay: Pore-forming activity, calcein release from liposomes; assay type: biochemical; details: Bcl-xL(ΔC) 500 nM; read-out: Pore Inhibition IC50
Protocol: (§4) Large unilamellar vesicles composed of 60% dioleoylphophatidylcholine and 40% dioleoylphosphatidylglycerol were prepared by the extrusion method of Mayer et al., supra. Lipid stocks, in chloroform, were mixed and dried under a stream of nitrogen gas. The lipid was resuspended by vortexing for 30 min in a solution of 40 mM calcein (Molecular Probes), 25 mM KCl, and 10 mM KOAc, pH 5.0. After 10 freeze-thaw cycles, the lipid suspension was extruded through two 0.1 μm pore diameter Nucleopore filters. Non-entrapped dye was removed by passage over a Sephadex G10 column (Amersham Biosciences). Lipid concentration was measured using the ammonium ferrothiocyanate method (Stewart, Anal. Biochem. 104:10-14, 1980).
(§5) For pore assays, recombinant truncated Bcl-2 family protein or mutant protein (Bcl-xL(ΔC)) (500 nM) was added to large unilamellar vesicles (60 μM lipid concentration) in 100 mM KCl, 10 mM KOAc, pH 5.0, and fluorescence measured (490 nm excitation, 520 nm emission) with a Fluoromax-3 spectrophotometer. Peptides of the BH3 domain were incubated with the BCl-xL(ΔC) 5 min prior to mixing with liposomes. AA1 was added to liposomes 1 min before adding the Bcl-xL(ΔC) protein. Samples for kinetic assays were analyzed in a thermostatted cuvette at 37° C. with constant stirring. Dose responses were measured in black quartz microplates (Hellma) at room temperature. Calcein release was expressed as percentage of maximum release with detergent lysis (0.1% Triton X-100).

Bcl-xL(ΔC) F146L [12] = target: T3, Bcl-xL(ΔC) F146L; assay: as above; assay type: biochemical; details: Bcl-xL(ΔC) 500 nM; read-out: Pore Inhibition IC50
Protocol: as §4, §5

Bcl-xL(ΔC) F97W [13] = target: T4, Bcl-xL(ΔC) F97W; assay: as above; assay type: biochemical; details: Bcl-xL(ΔC) 500 nM; read-out: Pore Inhibition IC50
Protocol: as §4, §5

Bcl-xL(ΔC) WT [14] = target: T5, Bcl-xL(ΔC) WT; assay: as above; assay type: biochemical
Protocol: as §4, §5

Bcl-xL(ΔC) A142L [15] = target: T1, Bcl-xL(ΔC) A142L; assay: as above; assay type: biochemical; details: Bcl-xL(ΔC) 500 nM; read-out: Pore Inhibition IC50
Protocol: as §4
as §5, with “Peptides of the BH3 domain were incubated with the BCl-xL(ΔC) 5 min prior to mixing with liposomes. AA1 was added to liposomes 1 min before adding the Bcl-xL(ΔC) protein.” left out, “X-100). […]” for “X-100).”

[16] = AA1 200 nM or FITC-labeled BH3 peptide 25 nM, read-out: Dissociation Constant KD

Structure (SMILES): CCCCCC[C@H]1C(=O)O[C@H](C)[C@H](NC(=O)c2cccc(NC=O)c2O)C(=O)O[C@@H](C)[C@@H]1OC(=O)CC(C)C [antimycin A1]
- sensitivity to antimycin A1 [1]: completely insensitive
- Cytotoxicity LD50 ([1]; 24 h): >10 µM
- Cytotoxicity LD50 [2]: 1.72 ± 0.3 µM
- Cytotoxicity LD50 ([2]; listed as AA1): 1.72 ± 0.34^2 μM
- sensitivity to antimycin A1 [3]: completely insensitive
- Cytotoxicity LD50 ([3]; 24 h): >10 µM
- Cytotoxicity LD50 [4]: 5.12 ± 0.9 µM
- Cytotoxicity LD50 ([4]; listed as AA1): 5.12 ± 0.94^2 μM
- Cytotoxicity LD50 [5]: 0.47 µM
- Cytotoxicity LD50 ([5]; listed as AA1): 0.47 ± 0.07^ μM
- increase in Kd compared with Bcl-xL wt(ΔC) (Bcl-xL(ΔC) A142L [6]): 20 fold
- Kd (Bcl-xL(ΔC) A142L [6]; [16]): 41.8 ± 21.4 µM
- Kd (Bcl-xL(ΔC) E92L [7]): 5.06 ± 0.86 µM
- decrease in affinity (Bcl-xL(ΔC) F146L [8]): ~10 fold
- Kd (Bcl-xL(ΔC) F146L [8]; [16]): 20 ± 9.4 µM
- increase in Kd compared with Bcl-xL wt(ΔC) (Bcl-xL(ΔC) F97W [9]): 8 fold
- Kd (Bcl-xL(ΔC) F97W [9]; [16]): 17.6 ± 5.2 µM
- Kd (Bcl-xL(ΔC) WT [10]): 2.36 ± 1.41 µM
- IC50 (Bcl-xL(ΔC) E92L [11]): 2.47 ± 0.3 µM
- IC50 (Bcl-xL(ΔC) F146L [12]): 3.6 ± 0.4 µM
- IC50 (Bcl-xL(ΔC) F97W [13]): 3.45 ± 0.34 µM
- effect on Bcl-xL pore-forming activity (Bcl-xL(ΔC) WT [14]): inhibited
- IC50 (Bcl-xL(ΔC) WT [14]; Bcl-xL(ΔC) 500 nM, read-out: Pore Inhibition IC50): 2.03 ± 0.24 µM
- IC50 (Bcl-xL(ΔC) A142L [15]): 4.1 ± 1.24 µM
